Tests used:
Format in all cases: cell-based
intracellular caspases [1] = assay: Nanowire sandwich assay of intracellular caspase activity, mass analysis (MALDI-TOF) of substrate peptide; conditions: 500 nM Staurosporine, 18 hours; FIG. 8C
intracellular caspases [2] = assay: Nanowire sandwich assay of intracellular caspase activity, TAMRA-labelled substrate peptide, fluorescence microscope; conditions: 200 nM apoptosis inducing agent in medium, 4 hours; 555 nm excitation/590 nm emission; FIG. 6D
Experimental: Since the fragments released into cells have TAMRA dye and can be identified by fluorescence microscope, activation of caspases may be confirmed based thereon.
As described in Example 5, peptides were fixed to nanowires using SMPH linker, and the peptide-fixed nanowires were positioned down, cell-fixed nanowire were positioned up, and they were contacted in a sandwich manner and incubated in DMEM containing penicillin (100 units/ml), streptomycin (0.1 mg/ml), 10% FBS and 200 nM Staurosporine (apoptosis inducing agent, Sigma) at 37° C., 5% CO2 for 4 hours.

[3] = tested on: Protein tyrosine phosphatase (PTP) in HeLa cells; assay: Nanowire sandwich assay of intracellular PTP activity with PTP inhibitors (MALDI-TOF of substrate peptide); conditions: 100 μM sodium orthovanadate and 40 μM α-bromo-4-hydroxyacetophenone given together, 40 minutes pre-incubation, then 1 hour sandwich incubation, FIG. 5C
Experimental: Specifically, the silicon nanowires prepared in Example 1 were washed with 100% (v/v) isopropyl alcohol before use and dried at room temperature, and then, introduced in 2 ml of toluene solution containing 100 μl of APTMS (Aminopropyl trimethoxysilane), reacted at room temperature for 2 hours, and washed 3 times respectively with toluene, 100% ethanol and distilled water, and finally washed with PBS (Phosphate Buffered Saline) to complete silanization so that the surface of the silicon nanowire has positively charged ammonium group. […]
The cell-fixed nanowires were positioned down, the PTP substrate peptide-fixed nanowires were positioned up, and they were contacted with each other, and then, incubated in DMEM medium containing penicillin (100 units/ml), streptomycin (0.1 mg/ml), and 10% FBS at 37° C., 5% CO2 for 1 hour. After incubation, the cell-fixed silicon nanowires and the peptide-fixed nanowires were separated from each other, and the peptide-fixed nanowires were washed with PBS and introduced in a buffer containing 50 mM Tris-HCl, pH 7.5, 0.5 mM EDTA, and 1 mM DTT (Dithiothreitol), and TEV protease (10 units/150 μl, Invitrogen) were added and treated at room temperature for 2 hours, and then, desalting was conducted with Zip-TIP (MILLIPORE), and changes of peptides were analyzed by MALDI-TOF (Applied Biosystems). […]

SMILES | cleavage of caspase substrate peptide (mass peak of 1041 dalton) (intracellular caspases [1]) | intracellular caspase activation: TAMRA dye-containing peptide fragments released into the cells (intracellular caspases [2]) | 1204 dalton peak (dephosphorylated PTP substrate peptide) in MALDI-TOF [3]
CN[C@@H]1C[C@H]2O[C@@](C)([C@@H]1OC)n1c3ccccc3c3c4c(c5c6ccccc6n2c5c31)C(=O)NC4 [Staurosporine] | cleaved by caspase activated by staurosporine | intracellular caspases are activated | 
[Na+].[Na+].[Na+].[O]=[V]([O-])([O-])[O-] [sodium orthovanadate] |  |  | remarkably reduced
O=C(CBr)c1ccc(O)cc1 [α-bromo-4-hydroxyacetophenone] |  |  | remarkably reduced
